According to patent US11608328B2, “Chemical probes to identify anti-mycobacterial MmpL3 inhibitors” (Creighton University, priority 2019, dated 2023):

Molecular target: MmpL3tb(G253E) (Mycobacterium tuberculosis, UniProt P9WJV5, G253E)
Type: binding

| Structure (SMILES) | BLI binding to MmpL3tb(G253E) versus WT |
| --- | --- |
| C[C@@H]1[C@H]2C[C@@H](C[C@H]1NC(=O)c1cc3ccccc3[nH]1)C2(C)C [North 4] | unaltered by the G253E mutation |
| Cc1cc(C)c2cc(C(=O)NC3CCCCCCC3)[nH]c2c1 [North 21] | no binding to MmpL3tb(G253E) was detected |
| CC(C)=CCC/C(C)=C/CNCCNC1C2CC3CC(C2)CC1C3 (stereo not drawn) [SQ109] | no binding to MmpL3tb(G253E) was detected |
